# Experimental data reported in ChEMBL document CHEMBL3885881, “DrugMatrix”.
# Organism: Rattus norvegicus
# Assay: DrugMatrix - Regimen: Daily Repeat
# Format: toxicity, organism-based, Sprague-Dawley
# Design: regimen Daily Repeat, gender Male, age 6-8 weeks
# Details: in vivo, po, route oral GAVAGE, […]; for URIC ACID / ALANINE AMINOTRANSFERASE / ALKALINE PHOSPHATASE / ASPARTATE AMINOTRANSFERASE / BLOOD UREA NITROGEN / CARBON DIOXIDE / CHLORIDE / CHOLESTEROL / CREATINE PHOSPHOKINASE / CREATININE / GLUCOSE / LACTATE DEHYDROGENASE / LIPASE / PHOSPHORUS / POTASSIUM / SODIUM / TOTAL BILIRUBIN / TOTAL PROTEIN: tissue Plasma; for ABSOLUTE BASOPHIL / ABSOLUTE EOSINOPHIL / ABSOLUTE LYMPHOCYTE / ABSOLUTE MONOCYTE / ABSOLUTE SEGMENTED NEUTROPHIL / BASOPHIL / EOSINOPHIL / ERYTHROCYTE COUNT / HEMATOCRIT / HEMOGLOBIN / LEUKOCYTE COUNT / LYMPHOCYTE / MEAN CORPUSCULAR HEMOGLOBIN / MEAN CORPUSCULAR HEMOGLOBIN CONCENTRATION / MEAN CORPUSCULAR VOLUME / MONOCYTE / NEUTROPHIL / NUCLEATED RED BLOOD CELLS / PLATELET COUNT: tissue Blood
# [1] = 10 mg/kg, 120 h, dose level Low, time 5 day
# [2] = 1100 mg/kg, 72 h, dose level High, time 3 day
# [3] = 1100 mg/kg, 120 h, dose level High, time 5 day
compound,measurement,setting,value
CCOC(=O)C1=C(C)NC(C)=C(C(=O)OC)C1c1cccc([N+](=O)[O-])c1 (stereo unspecified) [NITRENDIPINE],URIC ACID,"10 mg/kg, 72 h, dose level Low, time 3 day",0.7 mg/dL
same,ABSOLUTE BASOPHIL,[1],0 CELLS/uL
same,ABSOLUTE EOSINOPHIL,[1],0 CELLS/uL
same,ABSOLUTE LYMPHOCYTE,[1],10446 CELLS/uL
same,ABSOLUTE MONOCYTE,[1],116 CELLS/uL
same,ABSOLUTE SEGMENTED NEUTROPHIL,[1],1038 CELLS/uL
same,BASOPHIL,[1],0%
same,EOSINOPHIL,[1],0%
same,ERYTHROCYTE COUNT,[1],5.06 x10E6/uL
same,HEMATOCRIT,[1],32.77%
same,HEMOGLOBIN,[1],12.73 G/DL
same,LEUKOCYTE COUNT,[1],11.6 x10E3/uL
same,LYMPHOCYTE,[1],90%
same,MEAN CORPUSCULAR HEMOGLOBIN,[1],25.2 pg
same,MEAN CORPUSCULAR HEMOGLOBIN CONCENTRATION,[1],38.87 G/DL
same,MEAN CORPUSCULAR VOLUME,[1],64.8 fL
same,MONOCYTE,[1],1%
same,NEUTROPHIL,[1],9%
same,NUCLEATED RED BLOOD CELLS,[1],0 /100WBC
same,PLATELET COUNT,[1],1057 x10E3/uL
same,ALANINE AMINOTRANSFERASE,[1],72 u/L
same,ALKALINE PHOSPHATASE,[1],422.33 u/L
same,ASPARTATE AMINOTRANSFERASE,[1],98 u/L
same,BLOOD UREA NITROGEN,[1],15 mg/dL
same,CARBON DIOXIDE,[1],32.33 mmol/L
same,CHLORIDE,[1],101 MEQ/L
same,CHOLESTEROL,[1],70.67 mg/dL
same,CREATINE PHOSPHOKINASE,[1],376.67 u/L
same,CREATININE,[1],0.17 mg/dL
same,GLUCOSE,[1],143 mg/dL
same,LACTATE DEHYDROGENASE,[1],166.67 u/L
same,LIPASE,[1],9.67 u/L
same,PHOSPHORUS,[1],10.6 mg/dL
same,POTASSIUM,[1],5.57 MEQ/L
same,SODIUM,[1],144.07 MEQ/L
same,TOTAL BILIRUBIN,[1],0.23 mg/dL
same,TOTAL PROTEIN,[1],6.03 G/DL
same,URIC ACID,[1],0.53 mg/dL
same,ABSOLUTE BASOPHIL,[2],0 CELLS/uL
same,ABSOLUTE EOSINOPHIL,[2],21.67 CELLS/uL
same,ABSOLUTE LYMPHOCYTE,[2],8591 CELLS/uL
same,ABSOLUTE MONOCYTE,[2],68 CELLS/uL
same,ABSOLUTE SEGMENTED NEUTROPHIL,[2],719.33 CELLS/uL
same,BASOPHIL,[2],0%
same,EOSINOPHIL,[2],0.33%
same,ERYTHROCYTE COUNT,[2],5.96 x10E6/uL
same,HEMATOCRIT,[2],36.87%
same,HEMOGLOBIN,[2],14.27 G/DL
same,LEUKOCYTE COUNT,[2],9.4 x10E3/uL
same,LYMPHOCYTE,[2],91%
same,MEAN CORPUSCULAR HEMOGLOBIN,[2],23.93 pg
same,MEAN CORPUSCULAR VOLUME,[2],61.87 fL
same,MONOCYTE,[2],0.67%
same,NEUTROPHIL,[2],8%
same,NUCLEATED RED BLOOD CELLS,[2],0 /100WBC
same,PLATELET COUNT,[2],1329.67 x10E3/uL
same,ALANINE AMINOTRANSFERASE,[2],96.67 u/L
same,ALKALINE PHOSPHATASE,[2],346 u/L
same,ASPARTATE AMINOTRANSFERASE,[2],88.67 u/L
same,BLOOD UREA NITROGEN,[2],13.33 mg/dL
same,CARBON DIOXIDE,[2],30 mmol/L
same,CHLORIDE,[2],103.33 MEQ/L
same,CHOLESTEROL,[2],57.33 mg/dL
same,CREATINE PHOSPHOKINASE,[2],323.33 u/L
same,CREATININE,[2],0.14 mg/dL
same,GLUCOSE,[2],160 mg/dL
same,LACTATE DEHYDROGENASE,[2],142.67 u/L
same,LIPASE,[2],9.67 u/L
same,PHOSPHORUS,[2],9.8 mg/dL
same,POTASSIUM,[2],4.65 MEQ/L
same,SODIUM,[2],145.2 MEQ/L
same,TOTAL BILIRUBIN,[2],0.2 mg/dL
same,TOTAL PROTEIN,[2],5.2 G/DL
same,URIC ACID,[2],0.4 mg/dL
same,ABSOLUTE BASOPHIL,[3],0 CELLS/uL
same,ABSOLUTE EOSINOPHIL,[3],24.33 CELLS/uL
same,ABSOLUTE LYMPHOCYTE,[3],5730.33 CELLS/uL
same,ABSOLUTE MONOCYTE,[3],63.33 CELLS/uL
same,ABSOLUTE SEGMENTED NEUTROPHIL,[3],515.33 CELLS/uL
same,BASOPHIL,[3],0%
same,EOSINOPHIL,[3],0.33%
same,ERYTHROCYTE COUNT,[3],6.09 x10E6/uL
same,HEMATOCRIT,[3],37.57%
same,HEMOGLOBIN,[3],14.23 G/DL
same,LEUKOCYTE COUNT,[3],6.33 x10E3/uL
same,LYMPHOCYTE,[3],90.67%
same,MEAN CORPUSCULAR HEMOGLOBIN,[3],23.4 pg
same,MEAN CORPUSCULAR HEMOGLOBIN CONCENTRATION,[3],37.87 G/DL
same,MEAN CORPUSCULAR VOLUME,[3],61.7 fL
same,MONOCYTE,[3],1%
same,NEUTROPHIL,[3],8%
same,NUCLEATED RED BLOOD CELLS,[3],0 /100WBC
same,PLATELET COUNT,[3],1353.67 x10E3/uL
same,ALANINE AMINOTRANSFERASE,[3],65.67 u/L
same,ALKALINE PHOSPHATASE,[3],214.33 u/L
same,ASPARTATE AMINOTRANSFERASE,[3],85.67 u/L
same,BLOOD UREA NITROGEN,[3],11.67 mg/dL
same,CARBON DIOXIDE,[3],29 mmol/L
same,CHLORIDE,[3],102.67 MEQ/L
same,CHOLESTEROL,[3],58.33 mg/dL
same,CREATINE PHOSPHOKINASE,[3],328.33 u/L
same,CREATININE,[3],0.15 mg/dL
same,GLUCOSE,[3],133.67 mg/dL
same,LACTATE DEHYDROGENASE,[3],156.33 u/L
same,LIPASE,[3],11.67 u/L
same,PHOSPHORUS,[3],8.93 mg/dL
same,POTASSIUM,[3],4.8 MEQ/L
same,SODIUM,[3],147.07 MEQ/L
same,TOTAL BILIRUBIN,[3],0.2 mg/dL
same,TOTAL PROTEIN,[3],5.4 G/DL
same,URIC ACID,[3],0.47 mg/dL
